Measurements from ChEMBL document CHEMBL1201862, “PubChem BioAssay data set” (2004).
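Dose response: 5 concentrations. Exposure: 48 h. Format: 96-well plates. Endpoint: linear interpolation; highest concentration if not reached. GI50 = concentration required for 50% inhibition of growth.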 The source made the active and inactive calls. Cut-off read from the data, not from the text of the source: active = GI50 up to about 1.1 µM and inactive = higher.

Key:
Assay in all cases: NCI anticancer screen, dose series, 48 h
[1] = system: HCC 2998
[2] = system: RXF 393
[3] = system: MOLT-4
[4] = system: A549
[5] = system: SK-MEL-28
[6] = system: EKVX
[7] = system: CCRF-CEM
[8] = system: HOP-62
[9] = system: DMS-273
[10] = system: NCI-H23
[11] = system: HOP-18
[12] = system: SK-OV-3
[13] = system: SNB-75
[14] = system: NCI-H522
[15] = system: SF-295
[16] = system: UACC-62
[17] = system: SR
[18] = system: HCT-15
[19] = system: UO-31
[20] = system: SNB-78
[21] = system: COLO 205
[22] = system: HT-29
[23] = system: SK-MEL-5
[24] = system: TK-10
[25] = system: 786-0
[26] = system: Malme-3M
[27] = system: M19-MEL
[28] = system: ACHN
[29] = system: UACC-257
[30] = system: SF-268
[31] = system: NCI-H226
[32] = system: SNB-19
[33] = system: SF-539
[34] = system: LOX IMVI
[35] = system: RXF 631
[36] = system: OVCAR-5
[37] = system: K562
[38] = system: M14
[39] = system: SN12C
[40] = system: SK-MEL-2
[41] = system: NCI-H460
[42] = system: HCT-116
[43] = system: XF498
[44] = system: SW-620
[45] = system: IGROV-1
[46] = system: OVCAR-4
[47] = system: U-251
[48] = system: DLD-1
[49] = system: LXFL 529
[50] = system: OVCAR-3
[51] = system: DMS-114
[52] = system: RPMI-8226
[53] = system: KM-20L2
[54] = system: A498
[55] = system: HL-60
[56] = system: HOP-92
[57] = system: OVCAR-8
[58] = system: CAKI-1
[59] = system: KM12

Measured: GI50

C=C(C)C1CC=C(C)CC1 (centres undefined)
inactive: [1] 973 µM | [2] 982 µM | [3] 1140 µM | [4] 968 µM | [5] 951 µM | [6] 1030 µM | [7] 826 µM | [8] 883 µM | [9] 993 µM | [10] 933 µM | [11] > 100 µM | [12] 1140 µM | [13] 865 µM | [14] 989 µM | [15] 925 µM | [16] 838 µM | [17] 889 µM | [19] 925 µM | [20] 986 µM | [21] 1010 µM | [22] 923 µM | [23] 849 µM | [24] 1000 µM | [25] 923 µM | [26] 885 µM | [27] 879 µM | [28] 871 µM | [29] 927 µM | [30] 944 µM | [31] 830 µM | [32] 906 µM | [33] 899 µM | [34] 897 µM | [35] 908 µM | [36] 968 µM | [37] 813 µM | [38] 893 µM | [39] 893 µM | [40] 798 µM | [41] 968 µM | [42] 923 µM | [43] 993 µM | [44] 895 µM | [45] 993 µM | [46] 964 µM | [47] 787 µM | [48] 885 µM | [49] 855 µM | [50] 891 µM | [51] 891 µM | [52] > 100 µM | [53] 904 µM | [54] 906 µM | [55] 817 µM | [56] 841 µM | [57] 1040 µM | [58] 935 µM | [59] 1020 µM
891 µM: [18]
